Measurements taken from ChEMBL document CHEMBL1201862, “PubChem BioAssay data set” (2004).
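Test compounds were applied to cells in 96-well plates for 48 hours at 5 doses. GI50 marks 50% less growth.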 Calls of active or inactive are those of the source. No stated cut-off is given here; in the data, active = GI50 up to about 1.1 µM and inactive = higher.

Legend:
Experiment in all cases: DTP human tumour cell line panel, 48 h
LOX IMVI = tested on: LOX IMVI
DU-145 = tested on: DU-145
HCT-15 = tested on: HCT-15
RPMI-8226 = tested on: RPMI-8226
NCI-H460 = tested on: NCI-H460
UO-31 = tested on: UO-31
SK-MEL-5 = tested on: SK-MEL-5
HCT-116 = tested on: HCT-116
SN12C = tested on: SN12C
SK-MEL-2 = tested on: SK-MEL-2
HOP-62 = tested on: HOP-62
HCC 2998 = tested on: HCC 2998
A498 = tested on: A498
U-251 = tested on: U-251
TK-10 = tested on: TK-10
BT-549 = tested on: BT-549
EKVX = tested on: EKVX
SF-539 = tested on: SF-539
MCF7 = tested on: MCF7
A549 = tested on: A549
NCI/ADR-RES = tested on: NCI/ADR-RES
T47D = tested on: T47D
ACHN = tested on: ACHN
COLO 205 = tested on: COLO 205
Hs-578T = tested on: Hs-578T
UACC-62 = tested on: UACC-62
MOLT-4 = tested on: MOLT-4
OVCAR-4 = tested on: OVCAR-4
IGROV-1 = tested on: IGROV-1
UACC-257 = tested on: UACC-257
SNB-19 = tested on: SNB-19
PC-3 = tested on: PC-3
HT-29 = tested on: HT-29
SK-OV-3 = tested on: SK-OV-3
RXF 393 = tested on: RXF 393
KM12 = tested on: KM12
786-0 = tested on: 786-0
NCI-H226 = tested on: NCI-H226
SF-295 = tested on: SF-295
SNB-75 = tested on: SNB-75
MDA-N = tested on: MDA-N
MDA-MB-231 = tested on: MDA-MB-231
CAKI-1 = tested on: CAKI-1
K562 = tested on: K562
OVCAR-8 = tested on: OVCAR-8
CCRF-CEM = tested on: CCRF-CEM
MDA-MB-435 = tested on: MDA-MB-435
NCI-H522 = tested on: NCI-H522
HOP-92 = tested on: HOP-92
SK-MEL-28 = tested on: SK-MEL-28
Malme-3M = tested on: Malme-3M
OVCAR-3 = tested on: OVCAR-3
OVCAR-5 = tested on: OVCAR-5
M14 = tested on: M14
SW-620 = tested on: SW-620
SF-268 = tested on: SF-268
NCI-H23 = tested on: NCI-H23
HL-60 = tested on: HL-60

`COc1ccc(N2C(=O)C3c4[nH]c5ccccc5c4C4C(C)CCCC4C3C2=O)cc1` (centres undefined) was tested, and the GI50 (LOX IMVI) was 46.5 µM (inactive), the GI50 (DU-145) was > 83 µM (inactive) and the GI50 (HCT-15) was > 34 µM. For the same compound, the GI50 (RPMI-8226) was 12.8 µM (inactive), the GI50 (NCI-H460) was > 63.8 µM (inactive) and the GI50 (UO-31) was > 76.7 µM (inactive). For the same compound, the GI50 (SK-MEL-5) was 35 µM (inactive), the GI50 (HCT-116) was 13 µM (inactive) and the GI50 (SN12C) was 40.9 µM (inactive). The GI50 (SK-MEL-2) was 44.6 µM (inactive), the GI50 (HOP-62) was 23.6 µM (inactive) and the GI50 (HCC 2998) was > 100 µM (inactive). The GI50 (A498) was 45.5 µM (inactive), the GI50 (U-251) was > 57.7 µM (inactive) and the GI50 (TK-10) was > 88.3 µM (inactive). The GI50 (BT-549) was 3.64 µM (inactive), the GI50 (EKVX) was > 39.4 µM (inactive) and the GI50 (SF-539) was > 43.4 µM (inactive). For the same compound, the GI50 (MCF7) was 37.2 µM (inactive), the GI50 (A549) was > 45.1 µM (inactive) and the GI50 (NCI/ADR-RES) was 14.9 µM (inactive). The GI50 (T47D) was > 78.7 µM (inactive), the GI50 (ACHN) was 47.8 µM (inactive) and the GI50 (COLO 205) was > 50.7 µM (inactive). For the same compound, the GI50 (Hs-578T) was 19.8 µM (inactive), the GI50 (UACC-62) was 48.8 µM (inactive) and the GI50 (MOLT-4) was 7.21 µM (inactive). For the same compound, the GI50 (OVCAR-4) was 33.7 µM (inactive), the GI50 (IGROV-1) was 10 µM (inactive) and the GI50 (UACC-257) was 39.3 µM (inactive). For the same compound, the GI50 (SNB-19) was > 44.6 µM (inactive), the GI50 (PC-3) was 17.7 µM (inactive) and the GI50 (HT-29) was 29.7 µM (inactive). The GI50 (SK-OV-3) was > 81.3 µM (inactive), the GI50 (RXF 393) was > 26.6 µM (inactive) and the GI50 (KM12) was 13.8 µM (inactive). The GI50 (786-0) was 17.5 µM (inactive), the GI50 (NCI-H226) was 41.3 µM (inactive) and the GI50 (SF-295) was 16.4 µM (inactive). For the same compound, the GI50 (SNB-75) was 19.7 µM (inactive), the GI50 (MDA-N) was 3.19 µM (inactive) and the GI50 (MDA-MB-231) was 20.4 µM (inactive). For the same compound, the GI50 (CAKI-1) was 36.1 µM (inactive), the GI50 (K562) was 9.14 µM (inactive) and the GI50 (OVCAR-8) was 34 µM (inactive). For the same compound, the GI50 (CCRF-CEM) was 5.66 µM (inactive), the GI50 (MDA-MB-435) was 3.46 µM (inactive) and the GI50 (NCI-H522) was 7.94 µM (inactive). For the same compound, the GI50 (HOP-92) was 35.1 µM (inactive), the GI50 (SK-MEL-28) was > 71.1 µM (inactive) and the GI50 (Malme-3M) was 8.69 µM (inactive). The GI50 (OVCAR-3) was 26.1 µM (inactive), the GI50 (OVCAR-5) was > 63.8 µM (inactive) and the GI50 (M14) was > 41.5 µM (inactive). For the same compound, the GI50 (SW-620) was > 53 µM (inactive), the GI50 (SF-268) was 41 µM (inactive) and the GI50 (NCI-H23) was 54.7 µM (inactive).
For `O=S(=O)(N1CCCCN(S(=O)(=O)C(F)(F)F)CCCN(S(=O)(=O)C(F)(F)F)CCCN(S(=O)(=O)C(F)(F)F)CCCCN(S(=O)(=O)C(F)(F)F)CCCN(S(=O)(=O)C(F)(F)F)CCC1)C(F)(F)F`, the GI50 (LOX IMVI) was 80.5 µM (inactive), the GI50 (DU-145) was > 100 µM (inactive) and the GI50 (HCT-15) was 68.4 µM. For the same compound, the GI50 (NCI-H460) was 30.9 µM (inactive), the GI50 (UO-31) was > 100 µM (inactive) and the GI50 (SK-MEL-5) was 35 µM (inactive). For the same compound, the GI50 (HCT-116) was 87.1 µM (inactive), the GI50 (HL-60) was > 100 µM (inactive) and the GI50 (SN12C) was 35.8 µM (inactive). The GI50 (SK-MEL-2) was 76.4 µM (inactive), the GI50 (HOP-62) was 29.7 µM (inactive) and the GI50 (HCC 2998) was > 100 µM (inactive). For the same compound, the GI50 (A498) was 52.6 µM (inactive), the GI50 (U-251) was 21.6 µM (inactive) and the GI50 (TK-10) was 99.5 µM (inactive). For the same compound, the GI50 (BT-549) was 23.7 µM (inactive), the GI50 (EKVX) was 72.3 µM (inactive) and the GI50 (SF-539) was 28.9 µM (inactive). The GI50 (MCF7) was > 100 µM (inactive), the GI50 (A549) was > 100 µM (inactive) and the GI50 (NCI/ADR-RES) was 53.2 µM (inactive). The GI50 (T47D) was 77.4 µM (inactive), the GI50 (ACHN) was > 100 µM (inactive) and the GI50 (COLO 205) was > 100 µM (inactive). The GI50 (Hs-578T) was 30.3 µM (inactive), the GI50 (UACC-62) was 64.6 µM (inactive) and the GI50 (MOLT-4) was > 100 µM (inactive). For the same compound, the GI50 (OVCAR-4) was > 100 µM (inactive), the GI50 (IGROV-1) was 35.6 µM (inactive) and the GI50 (UACC-257) was 49.3 µM (inactive). The GI50 (SNB-19) was 35.2 µM (inactive), the GI50 (PC-3) was > 100 µM (inactive) and the GI50 (HT-29) was > 100 µM (inactive). For the same compound, the GI50 (SK-OV-3) was > 100 µM (inactive), the GI50 (RXF 393) was 28.6 µM (inactive) and the GI50 (KM12) was > 100 µM (inactive). The GI50 (786-0) was 18.2 µM (inactive), the GI50 (NCI-H226) was 81.8 µM (inactive) and the GI50 (SF-295) was 22.9 µM (inactive). The GI50 (SNB-75) was 37.9 µM (inactive), the GI50 (MDA-N) was > 100 µM (inactive) and the GI50 (MDA-MB-231) was > 100 µM (inactive). The GI50 (CAKI-1) was 37.2 µM (inactive), the GI50 (K562) was > 100 µM (inactive) and the GI50 (OVCAR-8) was 36.4 µM (inactive). For the same compound, the GI50 (CCRF-CEM) was > 100 µM (inactive), the GI50 (MDA-MB-435) was 53.7 µM (inactive) and the GI50 (NCI-H522) was 35.2 µM (inactive). The GI50 (HOP-92) was 31 µM (inactive), the GI50 (SK-MEL-28) was > 100 µM (inactive) and the GI50 (Malme-3M) was 23.2 µM (inactive). The GI50 (OVCAR-3) was 38.4 µM (inactive), the GI50 (OVCAR-5) was > 100 µM (inactive) and the GI50 (M14) was 63.7 µM (inactive). For the same compound, the GI50 (SW-620) was > 100 µM (inactive), the GI50 (SF-268) was 31.1 µM (inactive) and the GI50 (NCI-H23) was 56.5 µM (inactive).
